Measured values reported in ChEMBL document CHEMBL1938230, “6-Position optimization of tricyclic 4-quinolone-based inhibitors of glycogen synthase kinase-3β: discovery of nitrile derivatives with picomolar potency” (Bioorg Med Chem Lett, 2012).

Tests used:
[1] = target: Glycogen synthase kinase-3 alpha (Homo sapiens) (UniProt P49840); assay: Inhibition of human GSK3alpha in HL-60 cells lysate assessed as reduction of labeling of acyl-phosphate ATP probe at 100 nM; assay type: cell-free
HL-60 [2] = assay: Inhibition of human MST4/YSK1 in HL-60 cells lysate assessed as reduction of labeling of acyl-phosphate ATP probe at 100 nM
[3] = target: Serine/threonine-protein kinase Nek7 (Homo sapiens) (UniProt Q8TDX7); assay: Inhibition of human NEK7 in HL-60 cells lysate assessed as reduction of labeling of acyl-phosphate ATP probe at 100 nM; assay type: cell-free
Chain of Serine/threonine-protein kinase Nek7 (Homo sapiens) (Q8TDX7 whole entry, looked up): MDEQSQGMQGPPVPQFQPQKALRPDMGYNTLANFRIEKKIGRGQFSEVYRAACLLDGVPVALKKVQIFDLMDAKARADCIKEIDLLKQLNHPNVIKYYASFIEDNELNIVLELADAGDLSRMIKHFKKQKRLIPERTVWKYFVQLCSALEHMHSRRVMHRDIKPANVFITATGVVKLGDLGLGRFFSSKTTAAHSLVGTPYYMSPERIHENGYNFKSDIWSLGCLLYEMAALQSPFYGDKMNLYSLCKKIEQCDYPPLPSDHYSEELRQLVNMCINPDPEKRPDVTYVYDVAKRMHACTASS

[4] = target: Cyclin-dependent kinase 1 (Homo sapiens) (UniProt P06493); assay: Inhibition of human CDC2 in HL-60 cells lysate assessed as reduction of labeling of acyl-phosphate ATP probe at 100 nM; assay type: cell-free
Chain of Cyclin-dependent kinase 1 (Homo sapiens) (P06493 whole entry, looked up): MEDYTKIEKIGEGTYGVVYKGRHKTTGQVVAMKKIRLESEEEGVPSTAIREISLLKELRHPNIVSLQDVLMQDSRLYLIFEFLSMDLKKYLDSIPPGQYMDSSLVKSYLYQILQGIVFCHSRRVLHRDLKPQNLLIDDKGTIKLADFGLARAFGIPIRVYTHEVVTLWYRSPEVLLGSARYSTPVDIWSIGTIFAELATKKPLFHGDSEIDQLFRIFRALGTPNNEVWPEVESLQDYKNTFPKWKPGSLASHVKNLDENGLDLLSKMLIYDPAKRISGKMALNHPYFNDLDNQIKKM

[5] = target: Phosphatidylinositol 3-kinase catalytic subunit type 3 (Homo sapiens) (UniProt Q8NEB9); assay: Inhibition of human PIK3C3 in HL-60 cells lysate assessed as reduction of labeling of acyl-phosphate ATP probe at 100 nM; assay type: cell-free
[6] = target: c-Jun N-terminal kinase, JNK (Homo sapiens) (UniProt P45983+P53779+P45984); assay: Inhibition of human JNK1/JNK2/JNK3 in HL-60 cells lysate assessed as reduction of labeling of acyl-phosphate ATP probe at 100 nM; assay type: cell-free
[7] = target: eIF-2-alpha kinase GCN2 (Homo sapiens) (UniProt Q9P2K8); assay: Inhibition of human GCN2 domain2 in HL-60 cells lysate assessed as reduction of labeling of acyl-phosphate ATP probe at 100 nM; assay type: cell-free
HL-60 [8] = assay: Inhibition of human AurA/AurB/AurC in HL-60 cells lysate assessed as reduction of labeling of acyl-phosphate ATP probe at 100 nM
[9] = target: Cyclin-dependent kinase 7 (Homo sapiens) (UniProt P50613); assay: Inhibition of human CDK7 in HL-60 cells lysate assessed as reduction of labeling of acyl-phosphate ATP probe at 100 nM; assay type: cell-free
Chain of Cyclin-dependent kinase 7 (Homo sapiens) (P50613 whole entry): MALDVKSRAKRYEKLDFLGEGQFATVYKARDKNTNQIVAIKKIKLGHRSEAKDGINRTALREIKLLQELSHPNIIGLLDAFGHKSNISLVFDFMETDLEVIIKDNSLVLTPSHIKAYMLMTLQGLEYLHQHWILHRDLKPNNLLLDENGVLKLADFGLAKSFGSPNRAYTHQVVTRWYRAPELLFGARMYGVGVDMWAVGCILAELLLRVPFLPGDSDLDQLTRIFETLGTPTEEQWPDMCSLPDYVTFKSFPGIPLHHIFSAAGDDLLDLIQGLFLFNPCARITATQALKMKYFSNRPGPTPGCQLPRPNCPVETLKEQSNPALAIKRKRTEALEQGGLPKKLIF

[10] = target: Mitogen-activated protein kinase 3 (Homo sapiens) (UniProt P27361); assay: Inhibition of human Erk1 in HL-60 cells lysate assessed as reduction of labeling of acyl-phosphate ATP probe at 100 nM; assay type: cell-free
Chain of Mitogen-activated protein kinase 3 (Homo sapiens) (P27361 whole entry): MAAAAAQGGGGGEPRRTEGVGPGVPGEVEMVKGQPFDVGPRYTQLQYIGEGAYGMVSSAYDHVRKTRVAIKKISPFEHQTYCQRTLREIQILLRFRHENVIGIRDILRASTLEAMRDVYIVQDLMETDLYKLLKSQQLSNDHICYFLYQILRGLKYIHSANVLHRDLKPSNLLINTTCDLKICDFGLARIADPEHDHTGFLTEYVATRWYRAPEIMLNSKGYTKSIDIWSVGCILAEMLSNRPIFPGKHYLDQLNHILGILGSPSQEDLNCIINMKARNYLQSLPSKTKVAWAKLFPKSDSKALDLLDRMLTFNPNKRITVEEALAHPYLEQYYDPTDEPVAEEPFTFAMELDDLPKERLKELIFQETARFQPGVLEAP

[11] = target: Serine/threonine-protein kinase 26 (Homo sapiens) (UniProt Q9P289); assay: Inhibition of human MST4 in HL-60 cells lysate assessed as reduction of labeling of acyl-phosphate ATP probe at 100 nM; assay type: cell-free
Chain of Serine/threonine-protein kinase 26 (Homo sapiens) (Q9P289 2-416 limits assumed): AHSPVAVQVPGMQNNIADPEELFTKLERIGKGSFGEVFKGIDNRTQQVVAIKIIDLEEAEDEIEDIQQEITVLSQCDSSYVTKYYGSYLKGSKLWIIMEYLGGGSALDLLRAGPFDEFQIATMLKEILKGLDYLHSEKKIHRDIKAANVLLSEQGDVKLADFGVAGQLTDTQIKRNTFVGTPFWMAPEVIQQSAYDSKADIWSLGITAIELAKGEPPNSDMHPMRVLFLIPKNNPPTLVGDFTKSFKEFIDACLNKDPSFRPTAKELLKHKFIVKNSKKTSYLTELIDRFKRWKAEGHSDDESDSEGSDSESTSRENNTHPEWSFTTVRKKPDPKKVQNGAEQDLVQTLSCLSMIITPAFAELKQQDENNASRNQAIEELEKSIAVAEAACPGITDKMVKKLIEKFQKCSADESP

[12] = target: 1-phosphatidylinositol 3-phosphate 5-kinase (Homo sapiens) (UniProt Q9Y2I7); assay: Inhibition of human PIP5K3 in HL-60 cells lysate assessed as reduction of labeling of acyl-phosphate ATP probe at 100 nM; assay type: cell-free
[13] = target: T1, Serine/threonine-protein kinase tousled-like 1 (Homo sapiens) (UniProt Q9UKI8); assay: Inhibition of human TLK1 in HL-60 cells lysate assessed as reduction of labeling of acyl-phosphate ATP probe at 100 nM; assay type: cell-free
T1 sequence (whole entry): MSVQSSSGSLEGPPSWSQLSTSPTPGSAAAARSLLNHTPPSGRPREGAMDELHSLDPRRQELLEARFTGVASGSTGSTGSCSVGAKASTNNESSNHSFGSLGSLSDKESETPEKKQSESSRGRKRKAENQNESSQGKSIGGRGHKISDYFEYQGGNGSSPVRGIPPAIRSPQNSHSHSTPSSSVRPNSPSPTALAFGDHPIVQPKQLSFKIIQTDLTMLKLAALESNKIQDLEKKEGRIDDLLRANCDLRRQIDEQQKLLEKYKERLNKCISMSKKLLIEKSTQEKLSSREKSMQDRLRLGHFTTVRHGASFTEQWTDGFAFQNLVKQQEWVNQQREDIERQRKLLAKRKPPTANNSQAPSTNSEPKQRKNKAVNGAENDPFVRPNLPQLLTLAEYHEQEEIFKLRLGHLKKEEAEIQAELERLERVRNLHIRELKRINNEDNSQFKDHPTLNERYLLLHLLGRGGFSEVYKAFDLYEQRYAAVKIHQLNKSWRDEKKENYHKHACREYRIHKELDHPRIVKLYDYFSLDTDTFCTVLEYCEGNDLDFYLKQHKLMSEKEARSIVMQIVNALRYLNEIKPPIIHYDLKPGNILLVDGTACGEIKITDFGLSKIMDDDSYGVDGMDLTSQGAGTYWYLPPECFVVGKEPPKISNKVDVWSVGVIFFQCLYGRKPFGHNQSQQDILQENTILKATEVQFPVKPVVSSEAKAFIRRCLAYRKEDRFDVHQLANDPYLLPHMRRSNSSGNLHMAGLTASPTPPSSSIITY

[14] = target: Cyclin-dependent kinase 6 (Homo sapiens) (UniProt Q00534); assay: Inhibition of human CDK6 in HL-60 cells lysate assessed as reduction of labeling of acyl-phosphate ATP probe at 100 nM; assay type: cell-free
Chain of Cyclin-dependent kinase 6 (Homo sapiens) (Q00534 whole entry): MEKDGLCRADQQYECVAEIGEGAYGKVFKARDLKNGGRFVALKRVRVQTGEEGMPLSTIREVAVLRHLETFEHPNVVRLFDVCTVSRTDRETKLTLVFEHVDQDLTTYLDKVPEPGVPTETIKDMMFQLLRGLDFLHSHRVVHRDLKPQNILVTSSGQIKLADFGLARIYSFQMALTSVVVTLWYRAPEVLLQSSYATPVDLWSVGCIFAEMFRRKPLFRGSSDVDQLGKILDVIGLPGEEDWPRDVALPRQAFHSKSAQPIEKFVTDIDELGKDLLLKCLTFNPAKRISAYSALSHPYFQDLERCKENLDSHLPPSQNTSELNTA

[15] = target: Serine/threonine-protein kinase mTOR (Homo sapiens) (UniProt P42345); assay: Inhibition of human mTOR in HL-60 cells lysate assessed as reduction of labeling of acyl-phosphate ATP probe at 100 nM; assay type: cell-free
[16] = target: STE20-like serine/threonine-protein kinase SLK (Homo sapiens) (UniProt Q9H2G2); assay: Inhibition of human SLK in HL-60 cells lysate assessed as reduction of labeling of acyl-phosphate ATP probe at 100 nM
[17] = target: Mitogen-activated protein kinase 7 (Homo sapiens) (UniProt Q13164); assay: Inhibition of human Erk5 in HL-60 cells lysate assessed as reduction of labeling of acyl-phosphate ATP probe at 100 nM; assay type: cell-free
[18] = target: Cyclin-dependent kinase 14 (Homo sapiens) (UniProt O94921); assay: Inhibition of human PFTAIRE1 in HL-60 cells lysate assessed as reduction of labeling of acyl-phosphate ATP probe at 100 nM; assay type: cell-free
Chain of Cyclin-dependent kinase 14 (Homo sapiens) (O94921 whole entry): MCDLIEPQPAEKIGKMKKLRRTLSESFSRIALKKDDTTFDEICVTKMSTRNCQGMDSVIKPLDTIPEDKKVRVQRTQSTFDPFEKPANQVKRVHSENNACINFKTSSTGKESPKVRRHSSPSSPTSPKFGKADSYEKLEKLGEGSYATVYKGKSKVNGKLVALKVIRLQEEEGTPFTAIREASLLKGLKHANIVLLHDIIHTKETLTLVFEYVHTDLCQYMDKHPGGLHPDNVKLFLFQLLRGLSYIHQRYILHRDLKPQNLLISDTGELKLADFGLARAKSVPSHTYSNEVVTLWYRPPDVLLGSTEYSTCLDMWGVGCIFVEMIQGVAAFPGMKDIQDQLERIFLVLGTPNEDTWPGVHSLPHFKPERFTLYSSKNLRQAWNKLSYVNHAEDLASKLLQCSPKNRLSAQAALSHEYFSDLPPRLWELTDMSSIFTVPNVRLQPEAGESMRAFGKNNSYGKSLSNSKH

[19] = target: Calcium/calmodulin-dependent protein kinase kinase 2 (Homo sapiens) (UniProt Q96RR4); assay: Inhibition of human CaMKK2 in HL-60 cells lysate assessed as reduction of labeling of acyl-phosphate ATP probe at 100 nM; assay type: cell-free
Chain of Calcium/calmodulin-dependent protein kinase kinase 2 (Homo sapiens) (Q96RR4 2-588 limits assumed): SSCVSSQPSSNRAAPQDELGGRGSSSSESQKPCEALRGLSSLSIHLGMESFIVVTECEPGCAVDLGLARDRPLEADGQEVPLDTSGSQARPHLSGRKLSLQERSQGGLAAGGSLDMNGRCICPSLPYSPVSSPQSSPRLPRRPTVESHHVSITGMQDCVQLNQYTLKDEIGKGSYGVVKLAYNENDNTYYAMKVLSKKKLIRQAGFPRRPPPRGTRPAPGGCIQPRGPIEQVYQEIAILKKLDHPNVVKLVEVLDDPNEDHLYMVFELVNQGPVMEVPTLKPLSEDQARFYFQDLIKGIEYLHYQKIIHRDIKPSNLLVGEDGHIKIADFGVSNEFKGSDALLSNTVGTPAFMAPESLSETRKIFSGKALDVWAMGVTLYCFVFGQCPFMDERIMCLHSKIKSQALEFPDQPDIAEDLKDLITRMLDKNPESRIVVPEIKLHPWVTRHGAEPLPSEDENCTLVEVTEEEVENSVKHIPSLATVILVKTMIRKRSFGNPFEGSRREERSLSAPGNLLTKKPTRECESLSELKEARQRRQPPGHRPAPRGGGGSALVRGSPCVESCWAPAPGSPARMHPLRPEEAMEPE

[20] = target: Tyrosine-protein kinase Fer (Homo sapiens) (UniProt P16591); assay: Inhibition of human FER in HL-60 cells lysate assessed as reduction of labeling of acyl-phosphate ATP probe at 100 nM; assay type: cell-free
[21] = target: Tyrosine-protein kinase SYK (Homo sapiens) (UniProt P43405); assay: Inhibition of human SYK in HL-60 cells lysate assessed as reduction of labeling of acyl-phosphate ATP probe at 100 nM; assay type: cell-free
[22] = target: Phosphatidylinositol 4,5-bisphosphate 3-kinase catalytic subunit beta isoform (Homo sapiens) (UniProt P42338); assay: Inhibition of human PIK3CB in HL-60 cells lysate assessed as reduction of labeling of acyl-phosphate ATP probe at 100 nM; assay type: cell-free
[23] = target: Protein-tyrosine kinase 2-beta (Homo sapiens) (UniProt Q14289); assay: Inhibition of human PYK2 in HL-60 cells lysate assessed as reduction of labeling of acyl-phosphate ATP probe at 100 nM; assay type: cell-free
Chain of Protein-tyrosine kinase 2-beta (Homo sapiens) (Q14289 whole entry, looked up): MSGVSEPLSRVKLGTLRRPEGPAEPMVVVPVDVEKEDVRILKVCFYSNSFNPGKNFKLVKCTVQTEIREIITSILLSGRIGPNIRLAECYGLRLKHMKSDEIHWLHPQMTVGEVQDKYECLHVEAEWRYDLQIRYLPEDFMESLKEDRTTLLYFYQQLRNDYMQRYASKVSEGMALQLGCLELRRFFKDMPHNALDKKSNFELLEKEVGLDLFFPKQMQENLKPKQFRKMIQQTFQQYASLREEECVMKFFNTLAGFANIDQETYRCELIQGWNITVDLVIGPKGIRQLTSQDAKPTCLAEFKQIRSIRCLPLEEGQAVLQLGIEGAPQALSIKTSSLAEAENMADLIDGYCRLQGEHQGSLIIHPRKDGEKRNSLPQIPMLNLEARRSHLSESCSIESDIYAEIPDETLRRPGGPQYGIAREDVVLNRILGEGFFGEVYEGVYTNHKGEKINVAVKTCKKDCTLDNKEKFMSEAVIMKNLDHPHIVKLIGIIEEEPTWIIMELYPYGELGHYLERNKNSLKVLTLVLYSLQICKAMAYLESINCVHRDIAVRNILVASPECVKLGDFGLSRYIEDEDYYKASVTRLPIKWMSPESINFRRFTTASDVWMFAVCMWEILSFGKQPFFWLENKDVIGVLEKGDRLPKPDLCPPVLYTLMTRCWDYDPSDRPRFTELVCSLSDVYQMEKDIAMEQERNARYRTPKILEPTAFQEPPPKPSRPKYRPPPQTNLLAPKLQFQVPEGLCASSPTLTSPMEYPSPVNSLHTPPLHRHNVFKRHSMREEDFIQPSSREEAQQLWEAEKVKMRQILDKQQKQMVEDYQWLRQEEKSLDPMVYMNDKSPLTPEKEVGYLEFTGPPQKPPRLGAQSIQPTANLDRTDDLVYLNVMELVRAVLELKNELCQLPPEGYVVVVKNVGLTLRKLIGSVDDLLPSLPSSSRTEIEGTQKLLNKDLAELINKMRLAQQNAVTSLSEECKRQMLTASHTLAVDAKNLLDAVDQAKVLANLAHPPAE

Chain of Glycogen synthase kinase-3 alpha (Homo sapiens) (P49840 2-483 limits assumed): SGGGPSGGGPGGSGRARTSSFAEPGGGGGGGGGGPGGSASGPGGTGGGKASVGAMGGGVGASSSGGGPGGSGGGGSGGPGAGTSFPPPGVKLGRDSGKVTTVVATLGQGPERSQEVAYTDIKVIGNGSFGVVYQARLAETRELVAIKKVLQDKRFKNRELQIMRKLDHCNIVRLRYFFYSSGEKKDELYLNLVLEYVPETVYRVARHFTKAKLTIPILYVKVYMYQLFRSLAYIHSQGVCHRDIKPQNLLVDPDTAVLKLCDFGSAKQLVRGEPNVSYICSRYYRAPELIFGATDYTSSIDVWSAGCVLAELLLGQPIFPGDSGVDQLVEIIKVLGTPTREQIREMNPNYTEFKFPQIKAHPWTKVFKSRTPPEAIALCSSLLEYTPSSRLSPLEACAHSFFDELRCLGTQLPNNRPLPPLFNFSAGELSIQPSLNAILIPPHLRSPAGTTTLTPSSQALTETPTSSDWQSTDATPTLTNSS

inhibition [1]	inhibition [3]	inhibition [4]	inhibition [5]	inhibition [6]	inhibition [7]	inhibition [9]	inhibition [10]	inhibition [11]	inhibition [12]	inhibition [13]	inhibition [14]	inhibition [15]	inhibition [16]	inhibition [17]	inhibition [18]	inhibition [19]	inhibition [20]	Compound	inhibition at 0.1 µM (HL-60 [2])	inhibition at 0.1 µM (HL-60 [8])	also measured
> 99.5%	< 35%	< 35%	< 35%	< 35%	< 35%	< 35%	< 35%	< 35%	< 35%	< 35%	< 35%	< 35%	< 35%	< 35%	< 35%	< 35%	< 35%	C[C@H]1COc2c(NCCCc3ccccn3)c(F)c(N)c3c(=O)c(C#N)cn1c23	< 35%	< 35%	inhibition [21]: < 35%; inhibition [22]: < 35%; inhibition [23]: < 35%
95.2%	< 35%	< 35%	< 35%	< 35%	< 35%	< 35%	< 35%	< 35%	< 35%	< 35%	< 35%	< 35%	< 35%	< 35%	< 35%	< 35%	< 35%	C[C@H]1COc2c(NCCCn3cccn3)c(F)c(N)c3c(=O)c(C(=O)O)cn1c23	< 35%	< 35%	inhibition [21]: < 35%; inhibition [22]: < 35%; inhibition [23]: < 35%
> 99.5%	< 35%	< 35%	< 35%	< 35%	< 35%	< 35%	< 35%	< 35%	< 35%	< 35%	< 35%	< 35%	< 35%	< 35%	< 35%	< 35%	< 35%	C[C@H]1COc2c(NCCCn3cccn3)c(F)c(N)c3c(=O)c(C#N)cn1c23	< 35%	< 35%	inhibition [21]: < 35%; inhibition [22]: < 35%; inhibition [23]: < 35%
94.3%	< 35%	< 35%	< 35%	< 35%	< 35%	< 35%	< 35%	< 35%	< 35%	< 35%	< 35%	< 35%	< 35%	< 35%	< 35%	< 35%	< 35%	C[C@H]1COc2c(NCCCc3ccccn3)c(F)c(N)c3c(=O)c(C(=O)O)cn1c23	< 35%	< 35%	inhibition [21]: < 35%; inhibition [22]: < 35%; inhibition [23]: < 35%
